Where two headings read alike, the source gives them in different places.
Assays:
PIM2 = PIM2 (Homo sapiens (Human), UniProt Q9P1W9); assay: Dundee profiling
QSK = QSK (Homo sapiens (Human), UniProt Q9Y2K2); assay: KinomeScan; assay type: binding; settings: 1 uM
MLK1 = MLK1 (Homo sapiens (Human), UniProt P80192); assay: Dundee profiling
CSNK1G1 = CSNK1G1 (Homo sapiens (Human), UniProt Q9HCP0); assay: KinomeScan; assay type: binding; settings: 1 uM
GSK3b = GSK3b (Homo sapiens (Human), UniProt P49841); assay: Dundee profiling
PDK1 = PDK1 (Homo sapiens (Human), UniProt O15530); assay: Dundee profiling
MPSK1 = MPSK1 (Homo sapiens (Human), UniProt O75716); assay: Dundee profiling
YES1 = YES1 (Homo sapiens (Human), UniProt P07947); assay: Dundee profiling
[1] = Pharmacokinetic study in mice; assay type: in vivo, mouse; settings: for C0: back extrapolated conc.; for Vd: read-out: Vss
GCK = GCK (Homo sapiens (Human), UniProt Q12851); assay: Dundee profiling
MKK2 = MKK2 (Homo sapiens (Human), UniProt P36507); assay: Dundee profiling
p38a MAPK = p38a MAPK (Homo sapiens (Human), UniProt Q16539); assay: Dundee profiling
CSK = CSK (Homo sapiens (Human), UniProt P41240); assay: KinomeScan; assay type: binding; settings: 1 uM
[2] = biological target: RSK4 (Kin.Dom.1-N-terminal) (Homo sapiens (Human), UniProt Q9UK32); assay: KinomeScan; assay type: binding; settings: 1 uM
TESK1 = TESK1 (Homo sapiens (Human), UniProt Q15569); assay: Dundee profiling
MKK6 = MKK6 (Homo sapiens (Human), UniProt P52564); assay: Dundee profiling
RSK1 = RSK1 (Homo sapiens (Human), UniProt Q15418); assay: Dundee profiling
JNK2 = JNK2 (Homo sapiens (Human), UniProt P45984); assay: Dundee profiling
MLK3 = MLK3 (Homo sapiens (Human), UniProt Q16584); assay: KinomeScan; assay type: binding; settings: 1 uM
LRRK2 = LRRK2 (Mus musculus (Mouse), UniProt Q5S006); assay: Pharmacodynamic study, LRRK2 Ser910/Ser935 phosphorylation in mouse kidney, spleen and brain; assay type: in vivo
AMPK (hum) = assay: Dundee profiling
TSSK1 = TSSK1 (Homo sapiens (Human), UniProt Q9BXA7); assay: Dundee profiling
MKK1 = MKK1 (Homo sapiens (Human), UniProt Q02750); assay: Dundee profiling
PLK1 = PLK1 (Homo sapiens (Human), UniProt P53350); assay: Dundee profiling
MARK3 = MARK3 (Homo sapiens (Human), UniProt P27448); assay: Dundee profiling
CLK2 = CLK2 (Homo sapiens (Human), UniProt P49760); assay: Dundee profiling
VEG-FR = assay: Dundee profiling
EGFR (L858R) = EGFR (L858R) (Homo sapiens (Human), UniProt P00533, L858R); assay: KinomeScan; assay type: binding; settings: 1 uM
[3] = biological target: JAK1 (JH2domain-pseudokinase) (Homo sapiens (Human), UniProt P23458); assay: KinomeScan; assay type: binding; settings: 1 uM
BRK = BRK (Homo sapiens (Human), UniProt Q13882); assay: Dundee profiling
[4] = read-out: percent remaining enzymatic activity, I1, 1 μM
[5] = read-out: percent remaining enzymatic activity, I10
[6] = read-out: percent remaining enzymatic activity

LRRK2, sequence (Q5S006 whole entry, looked up): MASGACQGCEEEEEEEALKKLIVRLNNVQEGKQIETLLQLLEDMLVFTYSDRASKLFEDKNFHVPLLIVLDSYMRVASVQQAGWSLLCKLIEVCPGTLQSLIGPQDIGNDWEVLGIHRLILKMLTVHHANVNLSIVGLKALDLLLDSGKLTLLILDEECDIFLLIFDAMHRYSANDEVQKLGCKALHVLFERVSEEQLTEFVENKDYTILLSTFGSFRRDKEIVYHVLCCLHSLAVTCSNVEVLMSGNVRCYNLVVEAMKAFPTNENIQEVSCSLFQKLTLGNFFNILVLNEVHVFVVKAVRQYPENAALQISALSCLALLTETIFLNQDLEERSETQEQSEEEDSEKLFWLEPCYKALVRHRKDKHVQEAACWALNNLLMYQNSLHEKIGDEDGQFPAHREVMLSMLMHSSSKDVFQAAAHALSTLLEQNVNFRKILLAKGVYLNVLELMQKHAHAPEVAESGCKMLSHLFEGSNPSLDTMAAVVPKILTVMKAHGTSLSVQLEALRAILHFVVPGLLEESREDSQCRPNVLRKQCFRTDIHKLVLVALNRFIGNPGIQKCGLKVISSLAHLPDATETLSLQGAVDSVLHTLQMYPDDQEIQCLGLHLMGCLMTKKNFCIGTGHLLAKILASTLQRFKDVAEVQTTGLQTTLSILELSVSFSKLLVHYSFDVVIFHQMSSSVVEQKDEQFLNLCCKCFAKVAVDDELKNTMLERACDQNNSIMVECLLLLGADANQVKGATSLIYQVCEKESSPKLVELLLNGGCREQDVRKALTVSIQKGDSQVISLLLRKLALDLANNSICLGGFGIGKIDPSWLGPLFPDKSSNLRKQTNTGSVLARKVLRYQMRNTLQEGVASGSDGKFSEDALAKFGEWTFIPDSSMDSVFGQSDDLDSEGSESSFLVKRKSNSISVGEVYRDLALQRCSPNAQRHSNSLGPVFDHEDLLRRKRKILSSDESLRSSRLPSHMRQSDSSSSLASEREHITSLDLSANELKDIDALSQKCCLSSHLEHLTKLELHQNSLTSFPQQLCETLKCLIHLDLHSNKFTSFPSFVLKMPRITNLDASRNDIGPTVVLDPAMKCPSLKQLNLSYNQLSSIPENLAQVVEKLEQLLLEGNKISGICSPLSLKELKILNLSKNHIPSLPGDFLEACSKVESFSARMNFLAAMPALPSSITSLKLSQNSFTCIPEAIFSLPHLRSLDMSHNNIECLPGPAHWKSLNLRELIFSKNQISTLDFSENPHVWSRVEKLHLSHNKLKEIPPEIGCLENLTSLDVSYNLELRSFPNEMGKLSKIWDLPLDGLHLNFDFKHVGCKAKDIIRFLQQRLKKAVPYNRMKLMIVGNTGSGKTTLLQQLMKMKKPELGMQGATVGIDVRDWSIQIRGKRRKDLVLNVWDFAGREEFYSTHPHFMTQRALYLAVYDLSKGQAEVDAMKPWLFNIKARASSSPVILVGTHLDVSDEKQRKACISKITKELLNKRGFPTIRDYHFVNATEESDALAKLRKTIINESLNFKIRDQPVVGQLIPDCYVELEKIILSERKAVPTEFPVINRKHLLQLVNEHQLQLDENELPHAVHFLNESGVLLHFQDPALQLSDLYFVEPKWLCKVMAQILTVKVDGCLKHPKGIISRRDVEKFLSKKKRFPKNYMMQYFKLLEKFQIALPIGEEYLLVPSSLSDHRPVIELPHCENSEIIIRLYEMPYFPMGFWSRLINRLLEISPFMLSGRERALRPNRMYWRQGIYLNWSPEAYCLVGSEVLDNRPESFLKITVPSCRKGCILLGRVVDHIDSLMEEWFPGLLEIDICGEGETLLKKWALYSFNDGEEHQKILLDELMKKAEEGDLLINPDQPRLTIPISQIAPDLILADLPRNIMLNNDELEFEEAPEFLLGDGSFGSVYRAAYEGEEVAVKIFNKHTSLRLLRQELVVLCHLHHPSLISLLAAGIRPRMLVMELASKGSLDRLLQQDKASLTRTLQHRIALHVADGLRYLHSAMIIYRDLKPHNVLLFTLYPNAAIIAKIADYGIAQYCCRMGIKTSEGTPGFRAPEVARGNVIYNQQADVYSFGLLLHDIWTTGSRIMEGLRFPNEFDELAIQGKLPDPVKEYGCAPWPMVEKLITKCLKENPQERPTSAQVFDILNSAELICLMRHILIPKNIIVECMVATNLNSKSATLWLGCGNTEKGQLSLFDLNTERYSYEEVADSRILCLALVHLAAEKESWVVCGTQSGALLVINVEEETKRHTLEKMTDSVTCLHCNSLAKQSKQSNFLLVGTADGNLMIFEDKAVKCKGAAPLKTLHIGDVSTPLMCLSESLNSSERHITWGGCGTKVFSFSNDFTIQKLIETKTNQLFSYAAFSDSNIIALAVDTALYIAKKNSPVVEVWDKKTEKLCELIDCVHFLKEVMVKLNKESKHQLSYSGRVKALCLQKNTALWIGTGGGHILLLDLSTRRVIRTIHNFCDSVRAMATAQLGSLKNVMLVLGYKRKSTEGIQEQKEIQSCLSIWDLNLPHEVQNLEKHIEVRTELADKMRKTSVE
PLK1, sequence (P53350 whole entry, looked up, species assumed): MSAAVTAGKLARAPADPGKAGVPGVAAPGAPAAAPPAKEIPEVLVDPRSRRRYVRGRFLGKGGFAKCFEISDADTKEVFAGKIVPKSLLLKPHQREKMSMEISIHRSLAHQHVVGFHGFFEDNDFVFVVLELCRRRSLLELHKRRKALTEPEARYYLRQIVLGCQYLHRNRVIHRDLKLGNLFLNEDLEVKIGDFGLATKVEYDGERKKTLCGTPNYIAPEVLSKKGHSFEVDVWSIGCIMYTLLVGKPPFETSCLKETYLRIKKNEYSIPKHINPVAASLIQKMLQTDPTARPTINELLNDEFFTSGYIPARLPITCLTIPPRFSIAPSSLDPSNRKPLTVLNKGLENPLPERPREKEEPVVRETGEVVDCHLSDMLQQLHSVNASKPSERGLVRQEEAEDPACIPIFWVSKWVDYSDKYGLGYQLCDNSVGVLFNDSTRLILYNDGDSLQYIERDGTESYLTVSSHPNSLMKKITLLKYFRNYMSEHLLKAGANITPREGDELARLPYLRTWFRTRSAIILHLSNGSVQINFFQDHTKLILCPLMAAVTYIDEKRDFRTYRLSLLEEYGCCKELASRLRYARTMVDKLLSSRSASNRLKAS
YES1, sequence (P07947 whole entry, species assumed): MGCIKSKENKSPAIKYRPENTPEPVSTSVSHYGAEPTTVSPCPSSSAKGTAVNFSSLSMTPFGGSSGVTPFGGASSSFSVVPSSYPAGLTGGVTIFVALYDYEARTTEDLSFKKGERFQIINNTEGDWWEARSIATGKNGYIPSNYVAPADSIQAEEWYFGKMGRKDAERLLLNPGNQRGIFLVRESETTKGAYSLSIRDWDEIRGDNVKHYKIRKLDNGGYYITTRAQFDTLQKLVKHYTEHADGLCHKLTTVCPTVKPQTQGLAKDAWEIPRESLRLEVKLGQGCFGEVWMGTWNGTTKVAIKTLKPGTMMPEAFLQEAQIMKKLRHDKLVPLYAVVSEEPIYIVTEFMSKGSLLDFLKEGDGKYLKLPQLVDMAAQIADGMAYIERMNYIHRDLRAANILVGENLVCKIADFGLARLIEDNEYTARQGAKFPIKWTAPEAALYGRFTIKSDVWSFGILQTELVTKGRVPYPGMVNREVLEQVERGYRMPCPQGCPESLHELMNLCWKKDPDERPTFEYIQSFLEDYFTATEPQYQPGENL
GSK3b, sequence (P49841 whole entry, looked up, species assumed): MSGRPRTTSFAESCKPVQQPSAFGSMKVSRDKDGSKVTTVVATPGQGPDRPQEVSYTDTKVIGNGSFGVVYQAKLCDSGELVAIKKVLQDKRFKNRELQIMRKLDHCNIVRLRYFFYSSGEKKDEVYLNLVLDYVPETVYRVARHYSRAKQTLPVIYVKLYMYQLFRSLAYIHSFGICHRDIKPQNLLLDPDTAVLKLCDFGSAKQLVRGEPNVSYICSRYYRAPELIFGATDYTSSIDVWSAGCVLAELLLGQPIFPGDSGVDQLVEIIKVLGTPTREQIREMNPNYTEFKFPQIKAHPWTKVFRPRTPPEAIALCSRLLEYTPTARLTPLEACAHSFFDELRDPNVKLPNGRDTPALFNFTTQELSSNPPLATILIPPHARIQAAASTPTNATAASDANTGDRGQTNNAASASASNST
MARK3, sequence (P27448 whole entry, species assumed): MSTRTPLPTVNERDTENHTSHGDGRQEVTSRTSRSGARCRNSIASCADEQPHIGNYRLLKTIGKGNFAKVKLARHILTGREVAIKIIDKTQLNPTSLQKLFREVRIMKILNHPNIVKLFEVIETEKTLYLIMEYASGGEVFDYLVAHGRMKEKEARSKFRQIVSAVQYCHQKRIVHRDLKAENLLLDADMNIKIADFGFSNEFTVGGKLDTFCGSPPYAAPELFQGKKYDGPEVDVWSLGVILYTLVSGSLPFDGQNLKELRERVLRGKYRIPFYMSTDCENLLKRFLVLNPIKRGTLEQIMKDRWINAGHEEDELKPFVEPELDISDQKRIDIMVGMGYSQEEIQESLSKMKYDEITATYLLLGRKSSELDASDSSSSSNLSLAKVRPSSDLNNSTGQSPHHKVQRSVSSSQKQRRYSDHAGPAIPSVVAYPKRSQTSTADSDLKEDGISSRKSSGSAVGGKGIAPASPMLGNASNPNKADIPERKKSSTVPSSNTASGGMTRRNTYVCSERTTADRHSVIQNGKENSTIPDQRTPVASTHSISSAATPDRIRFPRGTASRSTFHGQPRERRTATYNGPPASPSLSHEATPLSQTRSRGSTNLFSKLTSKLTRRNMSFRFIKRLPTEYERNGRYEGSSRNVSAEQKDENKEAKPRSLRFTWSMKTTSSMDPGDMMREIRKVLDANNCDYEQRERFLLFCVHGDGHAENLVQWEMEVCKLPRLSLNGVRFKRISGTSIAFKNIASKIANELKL
RSK4 (Kin.Dom.1-N-terminal), sequence (Q9UK32 73-330): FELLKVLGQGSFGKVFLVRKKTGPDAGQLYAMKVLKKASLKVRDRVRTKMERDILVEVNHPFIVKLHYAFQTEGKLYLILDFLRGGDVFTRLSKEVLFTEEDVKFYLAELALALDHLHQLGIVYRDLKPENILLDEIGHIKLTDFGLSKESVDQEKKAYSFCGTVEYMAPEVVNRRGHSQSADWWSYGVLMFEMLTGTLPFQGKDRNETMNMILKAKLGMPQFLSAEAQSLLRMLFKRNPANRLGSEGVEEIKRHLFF

## CNc1nc(Nc2ccc(C(=O)N3CCOCC3)cc2OC)nc2[nH]cc(Cl)c12 [Compound 18, (4-((5-chloro-4-(methylamino)-7H-pyrrolo[2,3-d]pyrimidin-2-yl)amino)-3-methoxyphenyl)(morpholino)methanone]
PIM2; [4]
  remaining activity at 1 µM: 95%
PIM2; [5]
  remaining activity at 1 µM: 82%
QSK
  KinomeScan value: 86
MLK1; [4]
  remaining activity at 1 µM: 81%
MLK1; [5]
  remaining activity at 1 µM: 38%
CSNK1G1
  KinomeScan value: 97
GSK3b; [4]
  remaining activity at 1 µM: 82%
GSK3b; [5]
  remaining activity at 1 µM: 97%
PDK1; [4]
  remaining activity at 1 µM: 91%
PDK1; [5]
  remaining activity at 1 µM: 88%
MPSK1; [4]
  remaining activity at 1 µM: 113%
MPSK1; [5]
  remaining activity at 1 µM: 106%
YES1; I10
  percent remaining enzymatic activity: 85%
YES1; [6]
  remaining activity at 1 µM: 85%
[1]; Brain, i.v., 2 mg/kg
  AUClast: 239.31 ng·h/mL
[1]; Plasma, i.v., 2 mg/kg
  AUClast: 532.67 ng·h/mL
  T1/2: 39.6 min
[1]; Plasma, p.o., 10 mg/kg
  AUClast: 3094.58 ng·h/mL
[1]; mouse, brain/plasma, iv, 2 mg/kg i.v., from AUClast, read-out: brain/plasma concentration ratio
  Kp: 0.45
[1]; mouse, iv, Brain, 2 mg/kg
  AUC(0-inf): 246 ng·h/mL
  AUC(0-t): 239 ng·h/mL
  clearance: 135 mL/min/kg
  half-life: 13.8 min
  C0: 1340 ng/mL
[1]; mouse, iv, Brain, i.v., 2 mg/kg
  Vd: 1.7 L/kg
[1]; mouse, iv, Plasma, 2 mg/kg
  AUC(0-inf): 536 ng·h/mL
  AUC(0-t): 533 ng·h/mL
  clearance: 62.2 mL/min/kg
  half-life: 39.6 min
  C0: 1600 ng/mL
[1]; mouse, iv, Plasma, i.v., 2 mg/kg
  Vd: 1.73 L/kg
[1]; mouse, oral, Plasma, 10 mg/kg p.o. vs 2 mg/kg i.v., from AUClast, read-out: % F (oral bioavailability)
  bioavailability: 116%
[1]; mouse, po, Brain, 10 mg/kg
  AUC(0-inf): 762 ng·h/mL
  AUC(0-t): 688 ng·h/mL
  Cmax: 247 ng/mL
  Tmax: 60 min
[1]; mouse, po, Plasma, 10 mg/kg
  AUC(0-inf): 3870 ng·h/mL
  AUC(0-t): 3090 ng·h/mL
  Cmax: 803 ng/mL
  Tmax: 60 min
GCK; [4]
  remaining activity at 1 µM: 86%
GCK; [5]
  remaining activity at 1 µM: 41%
MKK2; [4]
  remaining activity at 1 µM: 101%
MKK2; [5]
  remaining activity at 1 µM: 72%
p38a MAPK; I10
  percent remaining enzymatic activity: 104%
p38a MAPK; [6]
  remaining activity at 1 µM: 90%
CSK
  KinomeScan value: 100
[2]
  KinomeScan value: 93
TESK1; [4]
  remaining activity at 1 µM: 97%
TESK1; [5]
  remaining activity at 1 µM: 95%
MKK6; [4]
  remaining activity at 1 µM: 37%
MKK6; [5]
  remaining activity at 1 µM: 11%
RSK1; [4]
  remaining activity at 1 µM: 96%
RSK1; [5]
  remaining activity at 1 µM: 60%
JNK2; I10
  percent remaining enzymatic activity: 4%
JNK2; [6]
  remaining activity at 1 µM: 27%
MLK3
  KinomeScan value: 100
LRRK2; 10 mg/kg
  inhibition of LRRK2 Ser935 phosphorylation in brain: only partial inhibition in brain
LRRK2; 30 mg/kg
  inhibition of LRRK2 Ser935 phosphorylation in tissues: near complete inhibition in all tissues
LRRK2; 100 mg/kg, intraperitoneal
  dephosphorylation of Ser935 of LRRK2 in kidney, spleen and brain: near complete dephosphorylation of Ser935 of LRRK2
AMPK (hum); I1, 1 μM
  percent remaining enzymatic activity: 104%
AMPK (hum); I10
  percent remaining enzymatic activity: 92%
TSSK1; [4]
  remaining activity at 1 µM: 14%
TSSK1; [5]
  remaining activity at 1 µM: 7%
MKK1; [4]
  remaining activity at 1 µM: 91%
MKK1; [5]
  remaining activity at 1 µM: 56%
PLK1; [4]
  remaining activity at 1 µM: 62%
PLK1; [5]
  remaining activity at 1 µM: 13%
MARK3; [4]
  remaining activity at 1 µM: 120%
MARK3; [5]
  remaining activity at 1 µM: 92%
CLK2; [4]
  remaining activity at 1 µM: 13%
CLK2; [5]
  remaining activity at 1 µM: 2%
VEG-FR; I1, 1 μM
  percent remaining enzymatic activity: 104%
VEG-FR; I10
  percent remaining enzymatic activity: 100%
EGFR (L858R)
  KinomeScan value: 83
[3]
  KinomeScan value: 99
BRK; [4]
  remaining activity at 1 µM: 62%
BRK; [5]
  remaining activity at 1 µM: 19%
